Source: ChEMBL document CHEMBL1201862, “PubChem BioAssay data set” (2004)
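Compound exposure: 48 hours, 5 concentrations, 96-well plates. GI50 marks 50% less growth.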 Active and inactive are the calls of the source. No stated cut-off is given here; in the data, active = GI50 up to about 1.1 µM and inactive = higher.

Assays:
Assay in all cases: NCI tumour cell line growth inhibition, 48 h
MDA-MB-435 = test system: MDA-MB-435
HCT-116 = test system: HCT-116
SW-620 = test system: SW-620
T47D = test system: T47D
BT-549 = test system: BT-549
NCI/ADR-RES = test system: NCI/ADR-RES
SF-268 = test system: SF-268
Hs-578T = test system: Hs-578T
IGROV-1 = test system: IGROV-1
SNB-19 = test system: SNB-19
DU-145 = test system: DU-145
RXF 393 = test system: RXF 393
ACHN = test system: ACHN
SK-MEL-2 = test system: SK-MEL-2
SNB-75 = test system: SNB-75
K562 = test system: K562
HT-29 = test system: HT-29
LOX IMVI = test system: LOX IMVI
MDA-MB-231 = test system: MDA-MB-231
UACC-257 = test system: UACC-257

Measured: GI50

O=c1[nH]c2nccnc2c2c([N+](=O)[O-])cccc12
inactive: MDA-MB-435 > 100 µM | HCT-116 > 100 µM | SW-620 > 100 µM | T47D 20.5 µM | BT-549 65.2 µM | NCI/ADR-RES > 100 µM | SF-268 > 100 µM | Hs-578T 55.5 µM | IGROV-1 > 100 µM | SNB-19 > 100 µM | DU-145 > 100 µM | RXF 393 58.2 µM | ACHN > 100 µM | SK-MEL-2 > 100 µM | SNB-75 > 100 µM | K562 > 100 µM | HT-29 > 100 µM | LOX IMVI 81.8 µM

O=C1c2cccnc2S(=O)(=O)N1c1ccc(Oc2ccccc2)cc1
inactive: MDA-MB-435 > 100 µM | HCT-116 > 100 µM | SW-620 > 100 µM | T47D > 100 µM | BT-549 > 100 µM | NCI/ADR-RES > 100 µM | SF-268 > 100 µM | MDA-MB-231 > 100 µM | IGROV-1 > 100 µM | SNB-19 > 100 µM | DU-145 > 100 µM | RXF 393 69.7 µM | ACHN > 100 µM | SK-MEL-2 > 100 µM | SNB-75 > 100 µM | UACC-257 92.7 µM | K562 > 100 µM | HT-29 > 100 µM

Cc1csc2[n+]1C(=O)/C(=C\c1ccc([N+](=O)[O-])cc1)S2
inactive: MDA-MB-435 24.9 µM | HCT-116 17.8 µM | SW-620 40.8 µM | T47D 21.2 µM | NCI/ADR-RES 25.4 µM | SF-268 20.3 µM | MDA-MB-231 27.3 µM | Hs-578T 25.6 µM | SNB-19 25.4 µM | DU-145 39 µM | RXF 393 29 µM | ACHN 25.4 µM | SK-MEL-2 25.6 µM | SNB-75 20.3 µM | UACC-257 29.9 µM | K562 26.8 µM | HT-29 23.9 µM | LOX IMVI 22.5 µM

O=Cc1[nH]c(=O)[nH]c(=O)c1C(=O)O
inactive: MDA-MB-435 > 100 µM | HCT-116 > 100 µM | SW-620 > 100 µM | T47D > 100 µM | NCI/ADR-RES > 100 µM | SF-268 > 100 µM | MDA-MB-231 > 100 µM | Hs-578T > 100 µM | IGROV-1 > 100 µM | SNB-19 > 100 µM | DU-145 > 100 µM | RXF 393 > 100 µM | ACHN > 100 µM | SK-MEL-2 > 100 µM | SNB-75 43.8 µM | UACC-257 > 100 µM | K562 > 100 µM | HT-29 > 100 µM | LOX IMVI > 100 µM

O=C(CN1CCCC1=O)CS(=O)(=O)c1ccccc1
inactive: MDA-MB-435 > 100 µM | HCT-116 > 100 µM | SW-620 > 100 µM | BT-549 > 100 µM | NCI/ADR-RES > 100 µM | SF-268 > 100 µM | Hs-578T > 100 µM | IGROV-1 > 100 µM | SNB-19 > 100 µM | DU-145 > 100 µM | RXF 393 > 100 µM | ACHN > 100 µM | SK-MEL-2 > 100 µM | SNB-75 > 100 µM | UACC-257 > 100 µM | K562 > 100 µM | HT-29 > 100 µM | LOX IMVI > 100 µM

O=c1[nH]nc(-c2ccccc2)n1Nc1ccccc1
inactive: MDA-MB-435 > 100 µM | HCT-116 > 100 µM | SW-620 > 100 µM | T47D > 100 µM | NCI/ADR-RES > 100 µM | SF-268 > 100 µM | MDA-MB-231 > 100 µM | Hs-578T > 100 µM | IGROV-1 > 100 µM | SNB-19 > 100 µM | DU-145 > 100 µM | RXF 393 > 100 µM | ACHN > 100 µM | SK-MEL-2 > 100 µM | SNB-75 > 100 µM | UACC-257 > 100 µM | K562 > 100 µM | HT-29 > 100 µM | LOX IMVI > 100 µM

COC(C)(C)C1=CCC(C)CC1 (centres undefined)
inactive: MDA-MB-435 > 100 µM | HCT-116 > 100 µM | SW-620 > 100 µM | BT-549 > 100 µM | SF-268 > 100 µM | Hs-578T > 100 µM | IGROV-1 > 100 µM | SNB-19 > 100 µM | DU-145 > 100 µM | RXF 393 > 100 µM | ACHN > 100 µM | SNB-75 66.1 µM | UACC-257 > 100 µM | HT-29 > 100 µM

COc1cc(NS(C)(=O)=O)ccc1N1Cc2c[nH]c3ccc4nc(C)cc1c4c23
inactive: MDA-MB-435 17.5 µM | HCT-116 62.8 µM | SW-620 > 100 µM | BT-549 > 100 µM | NCI/ADR-RES > 100 µM | SF-268 22.7 µM | MDA-MB-231 64 µM | Hs-578T 40.6 µM | IGROV-1 33.3 µM | SNB-19 18.7 µM | DU-145 > 100 µM | RXF 393 32 µM | ACHN > 100 µM | SK-MEL-2 74 µM | SNB-75 19.7 µM | UACC-257 > 100 µM | K562 26.5 µM | HT-29 > 100 µM | LOX IMVI > 100 µM

O=C1CN(c2ccc(Cl)cc2)C(=O)CN1NCNN1CC(=O)N(c2ccc(Cl)cc2)CC1=O
inactive: MDA-MB-435 > 100 µM | HCT-116 > 100 µM | SW-620 > 100 µM | BT-549 > 100 µM | SF-268 > 100 µM | Hs-578T > 100 µM | IGROV-1 > 100 µM | SNB-19 > 100 µM | DU-145 > 100 µM | RXF 393 > 100 µM | ACHN > 100 µM | SNB-75 > 100 µM | UACC-257 > 100 µM | HT-29 > 100 µM

CC1CC/C(=C\c2ccc(Cl)cc2)c2nc(N)c(C#N)c(-c3ccc(Cl)cc3)c21 (centres undefined)
inactive: MDA-MB-435 23.9 µM | HCT-116 84.9 µM | SW-620 55.3 µM | T47D 55.3 µM | BT-549 75.5 µM | NCI/ADR-RES 55.1 µM | MDA-MB-231 > 100 µM | IGROV-1 62.8 µM | SNB-19 29.9 µM | ACHN 42.2 µM | SK-MEL-2 66.1 µM | SNB-75 67 µM | UACC-257 32.9 µM | K562 31.5 µM | HT-29 30.7 µM | LOX IMVI > 100 µM

CON(C)C(=O)C(C)NC(=O)OCc1ccccc1 (centres undefined)
inactive: MDA-MB-435 > 100 µM | HCT-116 > 100 µM | SW-620 > 100 µM | BT-549 > 100 µM | NCI/ADR-RES > 100 µM | SF-268 > 100 µM | Hs-578T > 100 µM | IGROV-1 > 100 µM | SNB-19 > 100 µM | DU-145 > 100 µM | RXF 393 > 100 µM | ACHN > 100 µM | SNB-75 > 100 µM | UACC-257 > 100 µM | K562 > 100 µM | HT-29 > 100 µM
